Test results reported in patent US10745377B2, “Piperidine or piperazine linked imidazole and triazole derivatives and methods of use” (MERCK SHARP & DOHME CORP., priority 2013, dated 2020).

What was measured:
Type in all cases: biochemical
CYP3A4 = target: T1, CYP3A4 (Homo sapiens, UniProt P08684); experiment: Cocktail assay for CYPs in human liver microsomes: CYP3A4 (midazolam 1′-hydroxylation); settings: human liver microsomes 0.1 mg/mL, 2 μM midazolam, 10 min at 37° C., 6 concentrations up to 10 μM; read-out: IC50 (nM) CYP3A4
T1 construct: 0.1 mg/mL protein human liver microsomes (BD Gentest); tissue BD Gentest; host or cells: human liver microsomes
T1 sequence (P08684 whole entry): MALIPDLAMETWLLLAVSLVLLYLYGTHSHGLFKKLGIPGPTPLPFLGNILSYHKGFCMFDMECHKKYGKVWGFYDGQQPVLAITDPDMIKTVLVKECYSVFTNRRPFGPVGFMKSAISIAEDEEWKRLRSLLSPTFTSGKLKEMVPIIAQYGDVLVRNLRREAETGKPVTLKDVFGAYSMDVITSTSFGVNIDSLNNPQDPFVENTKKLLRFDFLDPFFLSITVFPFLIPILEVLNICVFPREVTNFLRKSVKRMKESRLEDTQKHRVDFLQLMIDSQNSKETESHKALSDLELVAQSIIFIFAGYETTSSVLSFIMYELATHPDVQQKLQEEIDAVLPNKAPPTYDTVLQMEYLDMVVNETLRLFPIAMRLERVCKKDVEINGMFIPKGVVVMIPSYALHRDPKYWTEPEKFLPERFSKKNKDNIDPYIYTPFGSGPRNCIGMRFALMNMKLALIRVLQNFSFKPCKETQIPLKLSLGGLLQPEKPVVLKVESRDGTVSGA
Description: (§1) Determination of IC50 in a Cocktail Assay for CYPs 1A2, 2C9, 2C19, 2D6 and 3A4
(§2) This assay was performed in a standard 96-well plate design. […] The incubation substrate mix contains 10 μM phenacetin (1A2), 5 μM diclofenac (2C9), 30 μM mephenytoin (2C19), 5 μM dextromethorphan (2D6) and 2 μM midazolam (3A4), 0.1 mg/mL protein human liver microsomes (BD Gentest), 1 mM NAPDH, 3.3 mM MgCl2 and 100 mM potassium phosphate buffer (pH 7.4). The production of the metabolite of each probe substrate was determined after incubation for 10 min at 37° C. Quantitation of the metabolite peak area ratio against an internal standard (tolbutamide) was determined by LC/MS/MS analysis following acetonitrile treatment of the incubations.
(§3) Samples were analyzed in the MRM mode with a SCIEX API-4000 mass spectrometer (Applied Biosystems, Foster City, Calif.), with a Shimadzu LC-20 AD pump (Shimadzu corporation, Kyoto, JP) and a CTC PAL autosampler (Agilent Technologies, Switzerland). A Phenomenex, Luna, 5 μm, 100 A, 2.00×30 mm HPLC column was used for the separation. The mobile phases were: (A) 0.1% formic acid in water and (B) 0.1% formic acid in acetonitrile. The binary gradient was as follows.
(§4) The mass spectrum parameters were as follows:
(§5) The LC/MS/MS parameters for the analytes were as follows.
(§6) The peak area ratio of the analyte to the internal standard was used to quantify the metabolite. The values of peak area ratios in the presence of test compound were compared to those of maximum or minimum controls and were expressed as % inhibition by interpolating between the maximum and minimum peak area ratios. Incubations with no inhibitor were defined as the maxima.
(§7) The following equation was used to calculate the % inhibition: [1−[(X−Low control)/(High control−Low control)]]*100
(§8) For the IC50 calculation, SigmaPlot was used to plot the mean % inhibition versus the test compound concentrations and for non-linear regression analysis of the data. Depending on the range of data points defining the inhibition curve, the data may have been fit to the 4-parameter logistic equation.

CYP1A2 = target: T2, CYP1A2 (Homo sapiens, UniProt P05177); experiment: Cocktail assay for CYPs in human liver microsomes: CYP1A2 (phenacetin O-deethylation); settings: human liver microsomes 0.1 mg/mL, 10 μM phenacetin, 10 min at 37° C., 6 concentrations up to 10 μM; read-out: IC50 (nM) CYP1A2
T2 construct: 0.1 mg/mL protein human liver microsomes (BD Gentest); tissue BD Gentest; host or cells: human liver microsomes
T2 sequence (P05177 1-516): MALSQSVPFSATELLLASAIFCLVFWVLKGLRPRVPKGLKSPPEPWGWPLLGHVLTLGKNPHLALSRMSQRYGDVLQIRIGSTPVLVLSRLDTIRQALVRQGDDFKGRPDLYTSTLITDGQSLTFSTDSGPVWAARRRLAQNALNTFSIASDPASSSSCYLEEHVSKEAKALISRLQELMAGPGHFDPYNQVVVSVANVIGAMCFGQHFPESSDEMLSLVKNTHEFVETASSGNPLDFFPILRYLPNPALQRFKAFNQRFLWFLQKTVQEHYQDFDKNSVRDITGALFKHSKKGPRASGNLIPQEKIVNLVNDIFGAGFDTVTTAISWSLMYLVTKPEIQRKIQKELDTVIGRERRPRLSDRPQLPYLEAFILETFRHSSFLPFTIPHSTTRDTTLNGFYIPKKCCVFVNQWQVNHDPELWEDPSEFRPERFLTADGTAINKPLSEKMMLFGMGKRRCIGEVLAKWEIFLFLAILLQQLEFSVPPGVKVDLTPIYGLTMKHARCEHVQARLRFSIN

CYP2C9 = target: T3, CYP2C9 (Homo sapiens, UniProt P11712); experiment: Cocktail assay for CYPs in human liver microsomes: CYP2C9 (diclofenac 4′-hydroxylation); settings: human liver microsomes 0.1 mg/mL, 5 μM diclofenac, 10 min at 37° C., 6 concentrations up to 10 μM; read-out: IC50 (nM) CYP2C9
T3 construct: 0.1 mg/mL protein human liver microsomes (BD Gentest); tissue BD Gentest; host or cells: human liver microsomes
T3 sequence (P11712 whole entry): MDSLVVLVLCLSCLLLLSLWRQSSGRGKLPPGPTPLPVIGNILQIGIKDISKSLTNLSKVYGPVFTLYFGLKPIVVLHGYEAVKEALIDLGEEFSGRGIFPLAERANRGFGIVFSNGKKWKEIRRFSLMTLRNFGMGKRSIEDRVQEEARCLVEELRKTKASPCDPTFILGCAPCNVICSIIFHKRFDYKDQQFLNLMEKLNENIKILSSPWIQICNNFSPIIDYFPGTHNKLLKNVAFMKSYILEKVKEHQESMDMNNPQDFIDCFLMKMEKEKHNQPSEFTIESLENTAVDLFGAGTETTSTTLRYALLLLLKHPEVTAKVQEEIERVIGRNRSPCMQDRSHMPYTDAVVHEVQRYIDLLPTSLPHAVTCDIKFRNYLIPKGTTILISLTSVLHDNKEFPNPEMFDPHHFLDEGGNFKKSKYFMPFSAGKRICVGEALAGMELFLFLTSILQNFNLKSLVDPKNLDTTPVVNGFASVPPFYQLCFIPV
Description: as §1, §2, §3, §4, §5, §6, §7, §8

CYP2D6 = target: T4, CYP2D6 (Homo sapiens, UniProt P10635); experiment: Cocktail assay for CYPs in human liver microsomes: CYP2D6 (dextromethorphan O-demethylation); settings: human liver microsomes 0.1 mg/mL, 5 μM dextromethorphan, 10 min at 37° C., 6 concentrations up to 10 μM; read-out: IC50 (nM) CYP2D6
T4 construct: 0.1 mg/mL protein human liver microsomes (BD Gentest); tissue BD Gentest; host or cells: human liver microsomes
T4 sequence (P10635 whole entry): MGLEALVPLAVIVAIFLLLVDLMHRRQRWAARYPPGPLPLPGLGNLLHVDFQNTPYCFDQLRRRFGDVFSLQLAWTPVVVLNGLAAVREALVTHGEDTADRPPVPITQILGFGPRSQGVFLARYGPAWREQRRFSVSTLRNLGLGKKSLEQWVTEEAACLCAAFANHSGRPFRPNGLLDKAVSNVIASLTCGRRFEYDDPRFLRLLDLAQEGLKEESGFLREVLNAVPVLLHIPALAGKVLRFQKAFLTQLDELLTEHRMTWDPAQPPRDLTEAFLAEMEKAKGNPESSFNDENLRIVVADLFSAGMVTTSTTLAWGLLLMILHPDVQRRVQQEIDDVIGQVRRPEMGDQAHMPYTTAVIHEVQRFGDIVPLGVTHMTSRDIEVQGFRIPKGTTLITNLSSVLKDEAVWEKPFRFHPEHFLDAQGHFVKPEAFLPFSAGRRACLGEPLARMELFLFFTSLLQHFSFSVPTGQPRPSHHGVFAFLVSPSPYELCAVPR

CYP2C19 = target: T5, CYP2C19 (Homo sapiens, UniProt P33261); experiment: Cocktail assay for CYPs in human liver microsomes: CYP2C19 (mephenytoin 4′-hydroxylation); settings: human liver microsomes 0.1 mg/mL, 30 μM mephenytoin, 10 min at 37° C., 6 concentrations up to 10 μM; read-out: IC50 (nM) CYP2C19
T5 construct: 0.1 mg/mL protein human liver microsomes (BD Gentest); tissue BD Gentest; host or cells: human liver microsomes
T5 sequence (P33261 whole entry): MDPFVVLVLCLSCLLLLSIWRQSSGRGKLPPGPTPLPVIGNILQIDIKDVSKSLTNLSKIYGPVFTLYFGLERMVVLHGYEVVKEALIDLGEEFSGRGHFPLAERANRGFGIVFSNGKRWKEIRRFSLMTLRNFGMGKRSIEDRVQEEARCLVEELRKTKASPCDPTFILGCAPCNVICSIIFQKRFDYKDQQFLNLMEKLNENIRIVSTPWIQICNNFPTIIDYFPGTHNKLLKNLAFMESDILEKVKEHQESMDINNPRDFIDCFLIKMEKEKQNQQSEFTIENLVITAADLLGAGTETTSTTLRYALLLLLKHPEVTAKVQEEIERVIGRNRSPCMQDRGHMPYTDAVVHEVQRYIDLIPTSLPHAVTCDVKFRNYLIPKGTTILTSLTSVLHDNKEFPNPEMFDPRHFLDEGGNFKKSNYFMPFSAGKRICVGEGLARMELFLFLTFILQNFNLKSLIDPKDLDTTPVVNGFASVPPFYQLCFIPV

Structure (SMILES) | IC50 (CYP3A4) [nM] | IC50 (CYP1A2) [nM] | IC50 (CYP2C9) [nM] | IC50 (CYP2D6) [nM] | IC50 (CYP2C19) [nM]
Cc1cc(C(=O)N2CCN(Cc3cncn3[C@H](C)c3ccc(F)cc3)CC2c2ccccc2)no1 (stereo partly drawn) [Compound 49, (4-((1-((R)-1-(4-fluorophenyl)ethyl)-1H-imidazol-5-yl)methyl)-2-phenylpiperazin-1-yl)(5-methylisoxazol-3-yl)methanone] | 14 | > 10000 | 1810 | > 10000 | 2110
CC(=O)N1CCN(Cc2cncn2[C@H](C)c2ccc(F)cc2)CC1c1ccccc1 (stereo partly drawn) [Compound 51, 1-(4-((1-((R)-1-(4-fluorophenyl)ethyl)-1H-imidazol-5-yl)methyl)-2-phenylpiperazin-1-yl)ethanone] | 22 | > 10000 | > 10000 | > 10000 | > 10000
C[C@H](c1ccc(F)cc1)n1cncc1CN1CCN(C(=O)c2ccccn2)C(c2ccccc2)C1 (stereo partly drawn) [Compound 53] | 13 | > 10000 | 6120 | 9840 | > 10000
CC1CN(Cc2cncn2[C@H](C)c2ccc(F)cc2)CC(C)N1C(=O)C1(C)CC1 (stereo partly drawn) [Compound 54, (4-((1-((R)-1-(4-fluorophenyl)ethyl)-1H-imidazol-5-yl)methyl)-2,6-dimethylpiperazin-1-yl)(1-methylcyclopropyl) methanone] | 14 | > 10000 | 2860 | > 10000 | 3350
C[C@H](c1ccc(F)cc1)n1cncc1CN1CCN(C(=O)c2ccccc2)C(C(C)(C)C)C1 (stereo partly drawn) [Compound 55, (2-(tert-butyl)-4-((1-((R)-1-(4-fluorophenyl)ethyl)-1H-imidazol-5-yl)methyl)piperazin-1-yl)(phenyl) methanone] | 10 | > 10000 | 2970 | 8030 | 2390
CC1CN(Cc2cncn2C(C)C2CCOCC2)CC(C)N1C(=O)C1(C)CC1 (stereo not drawn) [Compound 56, (2,6-dimethyl-4-((1-(1-(tetrahydro-2H-pyran-4-yl)ethyl)-1H-imidazol-5-yl)methyl)piperazin-1-yl)(1-methylcyclopropyl) methanone] | 35 | > 10000 | > 10000 | 7160 | > 10000
C[C@H](c1ccc(F)cc1)n1cncc1CN1CCN(C(=O)C2(C)CC2)C(c2ccc(N(C)C)cc2)C1 (stereo partly drawn) [Compound 57, (2-(4-(dimethylamino)phenyl)-4-((1-((R)-1-(4-fluorophenyl)ethyl)-1H-imidazol-5-yl)methyl)piperazin-1-yl)(1-methylcyclopropyl) methanone] | 5 | > 10000 | 2810 | 2450 | 2640
CC1CN(Cc2cncn2[C@H](C)c2ccc(C#N)cc2)CC(C)N1C(=O)C1CC(F)(F)C1 (stereo partly drawn) [Compound 58, 4-((1R)-1-(5-((4-(3,3-difluorocyclo-butanecarbonyl)-3,5-dimethylpiperazin-1-yl)methyl)-1H-imidazol-1-yl)ethyl)benzonitrile] | 7 | > 10000 | 2570 | > 10000 | > 10000
CC(c1ccccc1-c1ccc(F)cc1)n1cncc1CN1CCN(C(=O)c2ccccc2)CC1 (stereo not drawn) [Compound 59, (4-((1-(1-(4′-fluoro-[1,1′-biphenyl]-2-yl)ethyl)-1H-imidazol-5-yl)methyl)piperazin-1-yl)(phenyl) methanone] | 9 | > 10000 | 6480 | 2210 | 3360
CC(=O)N1CCN(Cc2cncn2C(C)c2ccccc2-c2ccc(F)cc2)CC1 (stereo not drawn) [Compound 60, 1-(4-((1-(1-(4′-fluoro-[1,1′-biphenyl]-2-yl)ethyl)-1H-imidazol-5-yl)methyl)piperazin-1-yl)ethanone] | 23 | > 10000 | > 10000 | 4500 | > 10000
C[C@H](c1ccc(F)cc1)n1cncc1CN1CCN(Cc2ccccc2)C(=O)C1 [Compound 61, (R)-1-benzyl-4-((1-(1-(4-fluorophenyl)ethyl)-1H-imidazol-5-yl)methyl)piperazin-2-one] | 23 | > 10000 | > 10000 | 2520 | 1620
C[C@H](c1ccc(F)cc1)n1cncc1CN1CCN(Cc2ccccc2Cn2cncn2)C(=O)C1 [Compound 62, (R)-1-(2-((1H-1,2,4-triazol-1-yl)methyl)benzyl)-4-((1-(1-(4-fluorophenyl)ethyl)-1H-imidazol-5-yl)methyl) piperazin-2-one] | 43 | 6940 | 6210 | 5640 | 1140
C[C@H](c1ccc(F)cc1)n1cncc1CN1CCN(Cc2cn3ccccc3n2)C(=O)C1 [Compound 63, (R)-4-((1-(1-(4-fluorophenyl)ethyl)-1H-imidazol-5-yl)methyl)-1-(imidazo[1,2-a]pyridin-2-ylmethyl)piperazin-2-one] | 46 | ≥ 10000 | > 10000 | > 10000 | > 10000
COc1ccc(-c2nc(CN3CCN(Cc4cncn4[C@H](C)c4ccc(F)cc4)CC3=O)no2)cc1 [Compound 64, (R)-4-((1-(1-(4-fluorophenyl)ethyl)-1H-imidazol-5-yl)methyl)-1-((5-(4-methoxyphenyl)-1,2,4-oxadiazol-3-yl)methyl) piperazin-2-one] | 43 | 3590 | 2860 | 3110 | 4520
COc1ccc(CNc2ncc(CN3CCN(Cc4cncn4[C@H](C)c4ccc(F)cc4)CC3=O)s2)c(OC)c1 [Compound 65, (R)-1-((2-((2,4-dimethoxybenzyl)amino)thiazol-5-yl)methyl)-4-((1-(1-(4-fluorophenyl)ethyl)-1H-imidazol-5-yl)methyl)piperazin-2-one] | 10 | > 10000 | 8780 | 3360 | 1340
C[C@H](c1ccc(F)cc1)n1cncc1CN1CCN(Cc2cnc(N(C)C)s2)C(=O)C1 [Compound 66, (R)-1-((2-(dimethylamino)thiazol-5-yl)methyl)-4-((1-(1-(4-fluorophenyl)ethyl)-1H-imidazol-5-yl)methyl) piperazin-2-one] | 43 | > 10000 | > 10000 | > 10000 | > 10000
CNc1ncc(CN2CCN(Cc3cncn3[C@H](C)c3ccc(F)cc3)CC2=O)s1 [Compound 67, (R)-4-((1-(1-(4-fluorophenyl)ethyl)-1H-imidazol-5-yl)methyl)-1-((2-(methylamino)thiazol-5-yl)methyl) piperazin-2-one] | 75 | > 10000 | > 10000 | > 10000 | > 10000
C[C@H](c1ccc(F)cc1)n1cncc1CN1CCN(Cc2cnc(N3CCOCC3)s2)C(=O)C1 [Compound 68, (R)-4-((1-(1-(4-fluorophenyl)ethyl)-1H-imidazol-5-yl)methyl)-1-((2-morpholinothiazol-5-yl)methyl)piperazin-2-one] | 80 | > 10000 | > 10000 | > 10000 | > 10000
